Reference: US8247211B2, “Glycopeptide antibiotics” (American Cyanamid Company, priority 2001, dated 2012)
In brackets after ≈: the same amount, converted by molar mass. Values belong to the compound of their own block, whether it stands above or below them.

What was measured:
Experiment in all cases: In vitro antibacterial evaluation: minimum inhibitory concentration (MIC), broth dilution method
Format in all cases: cell-based
Enterococcus sp. = details: 18 hours at 35° C.
Method in brief: (§1)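 Broth dilution per NCCLS M7-A2 in Muller-Hinton II […], inoculum 5×10^5 CFU/mL, antibiotic tested over 64-0.06 μg/mL. MIC is taken as the lowest concentration that inhibits growth. Panel includes recent clinical isolates resistant to methicillin, penicillin and/or vancomycin.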

Streptococcus sp. = details: 18 hours at 35° C.
Method in brief: as §1

Escherichia coli = details: 18 hours at 35° C.
Method in brief: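 NCCLS M7-A2 broth dilution; Muller-Hinton II […]; 5×10^5 CFU/mL; 64-0.06 μg/mL. MIC = lowest concentration with no growth.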

Staphylococcus sp. = details: for MIC Staphylococcus aureus (ATCC 29213): strain ATCC 29213; for MIC Staphylococcus aureus (GC 1131): strain GC 1131; for MIC Staphylococcus aureus (GC 3051): strain GC 3051; for MIC Staphylococcus aureus (GC 3053): strain GC 3053; for MIC Staphylococcus aureus (GC 4541): strain GC 4541; for MIC Staphylococcus aureus (GC 4542): strain GC 4542; for MIC Staphylococcus aureus-SMITH (GC 4543): strain GC 4543; for MIC Staphylococcus aureus (GC 4544): strain GC 4544; for MIC Staphylococcus aureus (GC 4545): strain GC 4545; for MIC Staphylococcus haemolyticus (GC 4546): strain GC 4546; for MIC Coagulase Negative Staphylococcus (GC 4547): strain GC 4547; for MIC Coagulase Negative Staphylococcus (GC 4548): strain GC 4548; for MIC Coagulase Negative Staphylococcus (GC 4549): strain GC 4549; for MIC Coagulase Negative Staphylococcus (GC 4551): strain GC 4551
Method in brief: as §1

[1] = Enterococcus faecalis (ATCC 29212)
[2] = Enterococcus faecalis (GC 2242)
[3] = Enterococcus faecalis (GC 2691)
[4] = Enterococcus faecalis (GC 3059)
[5] = Enterococcus faecalis (GC 4552)
[6] = Enterococcus faecalis (GC 4553)
[7] = Enterococcus faecalis (GC 4554)
[8] = Enterococcus faecalis (GC 6189)
[9] = broth dilution, inoculum 5×10^5 CFU/mL
[10] = Streptococcus agalactiae (GC 4564)
[11] = Streptococcus pneumoniae (ATCC 6301)
[12] = Streptococcus pneumoniae (GC 1894)
[13] = Streptococcus pneumoniae (GC 4565)
[14] = Streptococcus pyogenes (GC 4563)

MIC Enterococcus avium (GC 4558) (Enterococcus sp.; Enterococcus avium (GC 4558)): 16 µg/mL (≈ 9.9 µM)
MIC Enterococcus faecalis (ATCC 29212) (Enterococcus sp.; [1]): >64 µg/mL
MIC Enterococcus faecalis (GC 2242) (Enterococcus sp.; [2]): >64 µg/mL
MIC Enterococcus faecalis (GC 2691) (Enterococcus sp.; [3]): >64 µg/mL
MIC Enterococcus faecalis (GC 3059) (Enterococcus sp.; [4]): >64 µg/mL
MIC Enterococcus faecalis (GC 4552) (Enterococcus sp.; [5]): >64 µg/mL
MIC Enterococcus faecalis (GC 4553) (Enterococcus sp.; [6]): 64 µg/mL (≈ 39.6 µM)
MIC Enterococcus faecalis (GC 4554) (Enterococcus sp.; [7]): >64 µg/mL
MIC Enterococcus faecalis (GC 6189) (Enterococcus sp.; [8]): 64 µg/mL (≈ 39.6 µM)
MIC Enterococcus faecium (GC 2243) (Enterococcus sp.; Enterococcus faecium (GC 2243)): 64 µg/mL (≈ 39.6 µM)
MIC Enterococcus faecium (GC 4556) (Enterococcus sp.; Enterococcus faecium (GC 4556)): >64 µg/mL
MIC Enterococcus faecium (GC 4557) (Enterococcus sp.; Enterococcus faecium (GC 4557)): 8 µg/mL (≈ 4.95 µM)
MIC Enterococcus avium (GC 4558) (Enterococcus sp.; [9]): 16 µg/mL (≈ 9.9 µM)
MIC Enterococcus faecalis (ATCC 29212) (Enterococcus sp.; [9]): >64 µg/mL
MIC Enterococcus faecalis (GC 2242) (Enterococcus sp.; [9]): >64 µg/mL
MIC Enterococcus faecalis (GC 2691) (Enterococcus sp.; [9]): >64 µg/mL
MIC Enterococcus faecalis (GC 3059) (Enterococcus sp.; [9]): >64 µg/mL
MIC Enterococcus faecalis (GC 4552) (Enterococcus sp.; [9]): >64 µg/mL
MIC Enterococcus faecalis (GC 4553) (Enterococcus sp.; [9]): 64 µg/mL (≈ 39.6 µM)
MIC Enterococcus faecalis (GC 4554) (Enterococcus sp.; [9]): >64 µg/mL
MIC Enterococcus faecalis (GC 6189) (Enterococcus sp.; [9]): 64 µg/mL (≈ 39.6 µM)
MIC Enterococcus faecium (GC 2243) (Enterococcus sp.; [9]): 64 µg/mL (≈ 39.6 µM)
MIC Enterococcus faecium (GC 4556) (Enterococcus sp.; [9]): >64 µg/mL
MIC Enterococcus faecium (GC 4557) (Enterococcus sp.; [9]): 8 µg/mL (≈ 4.95 µM)
MIC Streptococcus agalactiae (GC 4564) (Streptococcus sp.; [10]): 16 µg/mL (≈ 9.9 µM)
MIC Streptococcus pneumoniae (ATCC 6301) (Streptococcus sp.; [11]): 4 µg/mL (≈ 2.48 µM)
MIC Streptococcus pneumoniae (GC 1894) (Streptococcus sp.; [12]): 8 µg/mL (≈ 4.95 µM)
MIC Streptococcus pneumoniae (GC 4565) (Streptococcus sp.; [13]): 8 µg/mL (≈ 4.95 µM)
MIC Streptococcus pyogenes (GC 4563) (Streptococcus sp.; [14]): 16 µg/mL (≈ 9.9 µM)
MIC Streptococcus agalactiae (GC 4564) (Streptococcus sp.; [9]): 16 µg/mL (≈ 9.9 µM)
MIC Streptococcus pneumoniae (ATCC 6301) (Streptococcus sp.; [9]): 4 µg/mL (≈ 2.48 µM)
MIC Streptococcus pneumoniae (GC 1894) (Streptococcus sp.; [9]): 8 µg/mL (≈ 4.95 µM)
MIC Streptococcus pneumoniae (GC 4565) (Streptococcus sp.; [9]): 8 µg/mL (≈ 4.95 µM)
MIC Streptococcus pyogenes (GC 4563) (Streptococcus sp.; [9]): 16 µg/mL (≈ 9.9 µM)
MIC Escherichia coli (ATCC 25922) (Escherichia coli): 32 µg/mL (≈ 19.8 µM)
MIC Escherichia coli (GC 4559) (Escherichia coli): 64 µg/mL (≈ 39.6 µM)
MIC Escherichia coli (GC 4560) (Escherichia coli): 16 µg/mL (≈ 9.9 µM)
MIC Staphylococcus aureus (ATCC 29213) (Staphylococcus sp.): 32 µg/mL (≈ 19.8 µM)
MIC Staphylococcus aureus (GC 1131) (Staphylococcus sp.): 16 µg/mL (≈ 9.9 µM)
MIC Staphylococcus aureus (GC 3051) (Staphylococcus sp.): 64 µg/mL (≈ 39.6 µM)
MIC Staphylococcus aureus (GC 3053) (Staphylococcus sp.): 64 µg/mL (≈ 39.6 µM)
MIC Staphylococcus aureus (GC 4541) (Staphylococcus sp.): 16 µg/mL (≈ 9.9 µM)
MIC Staphylococcus aureus (GC 4542) (Staphylococcus sp.): 64 µg/mL (≈ 39.6 µM)
MIC Staphylococcus aureus-SMITH (GC 4543) (Staphylococcus sp.): 16 µg/mL (≈ 9.9 µM)
MIC Staphylococcus aureus (GC 4544) (Staphylococcus sp.): 32 µg/mL (≈ 19.8 µM)
MIC Staphylococcus aureus (GC 4545) (Staphylococcus sp.): 32 µg/mL (≈ 19.8 µM)
MIC Coagulase Negative Staphylococcus (GC 4547) (Staphylococcus sp.): 32 µg/mL (≈ 19.8 µM)
MIC Coagulase Negative Staphylococcus (GC 4548) (Staphylococcus sp.): 8 µg/mL (≈ 4.95 µM)
MIC Coagulase Negative Staphylococcus (GC 4549) (Staphylococcus sp.): 8 µg/mL (≈ 4.95 µM)
MIC Coagulase Negative Staphylococcus (GC 4551) (Staphylococcus sp.): 16 µg/mL (≈ 9.9 µM)
MIC Coagulase Negative Staphylococcus (GC 6257) (Staphylococcus sp.; strain GC 6257): 4 µg/mL (≈ 2.48 µM)
SMILES: Cc1ccc(Oc2cccc(C3OCC4OC(OC5C(CO)OC(Oc6ccc(CC7NC(=O)C(C(C)c8ccccc8)NC(=O)CNC(=O)C(CO)NC(=O)C(C(O)C8CNC(=N)N8C8OC(CO)C(O)C(O)C8O)NC(=O)C(C(O)C8CNC(=N)N8)NC7=O)cc6I)C(O)C5O)C(O)C(O)C4O3)c2)cc1 (stereo not shown) [Example 197]
MIC Staphylococcus haemolyticus (GC 4546) (Staphylococcus sp.): 32 µg/mL (≈ 19.8 µM)

MIC Enterococcus avium (GC 4558) (Enterococcus sp.; Enterococcus avium (GC 4558)): 1 µg/mL (≈ 0.713 µM)
MIC Enterococcus faecalis (ATCC 29212) (Enterococcus sp.; [1]): 1 µg/mL (≈ 0.713 µM)
MIC Enterococcus faecalis (GC 2242) (Enterococcus sp.; [2]): 1 µg/mL (≈ 0.713 µM)
MIC Enterococcus faecalis (GC 2691) (Enterococcus sp.; [3]): 1 µg/mL (≈ 0.713 µM)
MIC Enterococcus faecalis (GC 3059) (Enterococcus sp.; [4]): 1 µg/mL (≈ 0.713 µM)
MIC Enterococcus faecalis (GC 4552) (Enterococcus sp.; [5]): 1 µg/mL (≈ 0.713 µM)
MIC Enterococcus faecalis (GC 4553) (Enterococcus sp.; [6]): 1 µg/mL (≈ 0.713 µM)
MIC Enterococcus faecalis (GC 4554) (Enterococcus sp.; [7]): 1 µg/mL (≈ 0.713 µM)
MIC Enterococcus faecalis (GC 6189) (Enterococcus sp.; [8]): 1 µg/mL (≈ 0.713 µM)
MIC Enterococcus faecium (GC 2243) (Enterococcus sp.; Enterococcus faecium (GC 2243)): 1 µg/mL (≈ 0.713 µM)
MIC Enterococcus faecium (GC 4556) (Enterococcus sp.; Enterococcus faecium (GC 4556)): 1 µg/mL (≈ 0.713 µM)
MIC Enterococcus faecium (GC 4557) (Enterococcus sp.; Enterococcus faecium (GC 4557)): 1 µg/mL (≈ 0.713 µM)
MIC Enterococcus avium (GC 4558) (Enterococcus sp.; [9]): 1 µg/mL (≈ 0.713 µM)
MIC Enterococcus faecalis (ATCC 29212) (Enterococcus sp.; [9]): 1 µg/mL (≈ 0.713 µM)
MIC Enterococcus faecalis (GC 2242) (Enterococcus sp.; [9]): 1 µg/mL (≈ 0.713 µM)
MIC Enterococcus faecalis (GC 2691) (Enterococcus sp.; [9]): 1 µg/mL (≈ 0.713 µM)
MIC Enterococcus faecalis (GC 3059) (Enterococcus sp.; [9]): 1 µg/mL (≈ 0.713 µM)
MIC Enterococcus faecalis (GC 4552) (Enterococcus sp.; [9]): 1 µg/mL (≈ 0.713 µM)
MIC Enterococcus faecalis (GC 4553) (Enterococcus sp.; [9]): 1 µg/mL (≈ 0.713 µM)
MIC Enterococcus faecalis (GC 4554) (Enterococcus sp.; [9]): 1 µg/mL (≈ 0.713 µM)
MIC Enterococcus faecalis (GC 6189) (Enterococcus sp.; [9]): 1 µg/mL (≈ 0.713 µM)
MIC Enterococcus faecium (GC 2243) (Enterococcus sp.; [9]): 1 µg/mL (≈ 0.713 µM)
MIC Enterococcus faecium (GC 4556) (Enterococcus sp.; [9]): 1 µg/mL (≈ 0.713 µM)
MIC Enterococcus faecium (GC 4557) (Enterococcus sp.; [9]): 1 µg/mL (≈ 0.713 µM)
MIC Streptococcus agalactiae (GC 4564) (Streptococcus sp.; [10]): <0.12 µg/mL
MIC Streptococcus pneumoniae (ATCC 6301) (Streptococcus sp.; [11]): <0.12 µg/mL
MIC Streptococcus pneumoniae (GC 1894) (Streptococcus sp.; [12]): <0.12 µg/mL
MIC Streptococcus pneumoniae (GC 4565) (Streptococcus sp.; [13]): <0.12 µg/mL
MIC Streptococcus pyogenes (GC 4563) (Streptococcus sp.; [14]): <0.12 µg/mL
MIC Streptococcus agalactiae (GC 4564) (Streptococcus sp.; [9]): <0.12 µg/mL
MIC Streptococcus pneumoniae (ATCC 6301) (Streptococcus sp.; [9]): <0.12 µg/mL
MIC Streptococcus pneumoniae (GC 1894) (Streptococcus sp.; [9]): <0.12 µg/mL
MIC Streptococcus pneumoniae (GC 4565) (Streptococcus sp.; [9]): <0.12 µg/mL
MIC Streptococcus pyogenes (GC 4563) (Streptococcus sp.; [9]): <0.12 µg/mL
MIC Escherichia coli (ATCC 25922) (Escherichia coli): 32 µg/mL (≈ 22.8 µM)
MIC Escherichia coli (GC 4559) (Escherichia coli): 32 µg/mL (≈ 22.8 µM)
MIC Escherichia coli (GC 4560) (Escherichia coli): 1 µg/mL (≈ 0.713 µM)
MIC Staphylococcus aureus (ATCC 29213) (Staphylococcus sp.): 0.5 µg/mL (≈ 0.356 µM)
MIC Staphylococcus aureus (GC 1131) (Staphylococcus sp.): 1 µg/mL (≈ 0.713 µM)
MIC Staphylococcus aureus (GC 3051) (Staphylococcus sp.): 0.5 µg/mL (≈ 0.356 µM)
MIC Staphylococcus aureus (GC 3053) (Staphylococcus sp.): 0.5 µg/mL (≈ 0.356 µM)
MIC Staphylococcus aureus (GC 4541) (Staphylococcus sp.): 0.5 µg/mL (≈ 0.356 µM)
MIC Staphylococcus aureus (GC 4542) (Staphylococcus sp.): 0.25 µg/mL (≈ 0.178 µM)
MIC Staphylococcus aureus-SMITH (GC 4543) (Staphylococcus sp.): 0.5 µg/mL (≈ 0.356 µM)
MIC Staphylococcus aureus (GC 4544) (Staphylococcus sp.): 0.5 µg/mL (≈ 0.356 µM)
MIC Staphylococcus aureus (GC 4545) (Staphylococcus sp.): 0.5 µg/mL (≈ 0.356 µM)
MIC Coagulase Negative Staphylococcus (GC 4547) (Staphylococcus sp.): 1 µg/mL (≈ 0.713 µM)
MIC Coagulase Negative Staphylococcus (GC 4548) (Staphylococcus sp.): >0.12 µg/mL
MIC Coagulase Negative Staphylococcus (GC 4549) (Staphylococcus sp.): 0.5 µg/mL (≈ 0.356 µM)
MIC Coagulase Negative Staphylococcus (GC 4551) (Staphylococcus sp.): 0.5 µg/mL (≈ 0.356 µM)
SMILES: N=C1NCC(C(O)C2NC(=O)C(Cc3ccc(OC4OC(CO)C(OC5OC6COC(CCc7ccccc7)OC6C(O)C5O)C(O)C4O)cc3)NC(=O)C(CC3CCCCC3)NC(=O)CNC(=O)C(CO)NC(=O)C(C(O)C3CNC(=N)N3C3OC(CO)C(O)C(O)C3O)NC2=O)N1 (stereo not shown) [Example 198, Cyclo[3-cyclohexylalanyl-O-[4-O-[4,6-O-(3-phenylpropylidene)hexopyranosyl]hexopyranosyl]tyrosyl-3-(2-iminoimidazolidin-4-yl)seryl-3-(3-hexopyranosyl-2-iminoimidazolidin-4-yl)serylserylglycyl]]
MIC Staphylococcus haemolyticus (GC 4546) (Staphylococcus sp.): 0.5 µg/mL (≈ 0.356 µM)
